Data published in ChEMBL document CHEMBL1201862, “PubChem BioAssay data set” (2004).
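A five-concentration, 48-hour dose response in 96-well plates underlies each endpoint, interpolated linearly between surrounding concentrations. GI50 marks 50% less growth.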 Activity calls are given as the source filed them. No stated cut-off is given here; in the data, active = GI50 up to about 1.1 µM and inactive = higher.

Assays:
Experiment in all cases: growth of human tumour cells (NCI), 48 h
[1] = test system: U-251
[2] = test system: NCI/ADR-RES
[3] = test system: T47D
[4] = test system: OVCAR-5
[5] = test system: HT-29
[6] = test system: BT-549
[7] = test system: SR
[8] = test system: Hs-578T
[9] = test system: HCC 2998
[10] = test system: SK-MEL-5
[11] = test system: SNB-19
[12] = test system: HL-60
[13] = test system: SK-MEL-28
[14] = test system: UACC-62
[15] = test system: NCI-H522
[16] = test system: NCI-H460
[17] = test system: OVCAR-4
[18] = test system: RPMI-8226
[19] = test system: RXF 393

Structure (SMILES)	GI50 [1]	GI50 [2]	GI50 [3]	GI50 [4]	GI50 [5]	GI50 [6]	GI50 [7]	GI50 [8]	GI50 [9]	GI50 [10]	GI50 [11]	GI50 [12]	GI50 [13]	GI50 [14]	GI50 [15]	GI50 [16]	GI50 [17]	GI50 [18]	GI50 [19]
O=C(c1ccco1)N(C(=O)N1CCN(c2ccccc2)CC1)S(=O)(=O)c1ccccc1	27.4 µM (inactive)	23.2 µM (inactive)	24.2 µM (inactive)	41.6 µM (inactive)	35.8 µM (inactive)	32.7 µM (inactive)	23.8 µM (inactive)	32 µM (inactive)	48.4 µM (inactive)	24.4 µM (inactive)	27.7 µM (inactive)	21.2 µM (inactive)	39.2 µM (inactive)	27.4 µM (inactive)	18.3 µM (inactive)	32.3 µM (inactive)	27.5 µM (inactive)	–	–
CN1C/C(=C\c2cccs2)C(=O)/C(=C/c2cccs2)C1	15.6 µM (inactive)	22.1 µM (inactive)	20.6 µM (inactive)	20.6 µM (inactive)	18.7 µM (inactive)	21.4 µM (inactive)	–	> 100 µM (inactive)	19.5 µM (inactive)	38.5 µM (inactive)	30.5 µM (inactive)	–	52.2 µM (inactive)	57.3 µM (inactive)	75.2 µM (inactive)	24.3 µM (inactive)	18.7 µM (inactive)	5.53 µM (inactive)	20.3 µM (inactive)
Cn1nc(C(=O)N2CC(CCl)c3c2cc([N+](=O)[O-])c2ccccc32)cc1NC(=O)Nc1cc(C(=O)N2CC(CCl)c3c2cc([N+](=O)[O-])c2ccccc32)nn1C (configuration not stated)	68.9 µM (inactive)	> 100 µM (inactive)	> 100 µM (inactive)	> 100 µM (inactive)	–	> 100 µM (inactive)	–	–	> 100 µM (inactive)	> 100 µM (inactive)	77.4 µM (inactive)	–	> 100 µM (inactive)	> 100 µM (inactive)	> 100 µM (inactive)	> 100 µM (inactive)	> 100 µM (inactive)	> 100 µM (inactive)	–
COc1cc(OC)cc(-c2nc3cc(F)ccc3s2)c1	15.1 µM (inactive)	> 100 µM (inactive)	10.5 µM (inactive)	24.9 µM (inactive)	> 100 µM (inactive)	11 µM (inactive)	–	–	< 0.01 µM (active)	> 100 µM (inactive)	16.9 µM (inactive)	–	–	16.4 µM (inactive)	19 µM (inactive)	21.8 µM (inactive)	> 100 µM (inactive)	> 100 µM (inactive)	17 µM (inactive)
COc1ccc2c(c1)c1c(n2CCN2CCCCC2)-c2ccccc2CC1	14.4 µM (inactive)	16.7 µM (inactive)	15.1 µM (inactive)	16.9 µM (inactive)	4.48 µM (inactive)	23.1 µM (inactive)	11.4 µM (inactive)	13.5 µM (inactive)	6.78 µM (inactive)	15.9 µM (inactive)	16.6 µM (inactive)	–	17.9 µM (inactive)	–	8.97 µM (inactive)	14.5 µM (inactive)	16.6 µM (inactive)	14.7 µM (inactive)	–
O=C1C(F)=CC(COC(c2ccccc2)(c2ccccc2)c2ccccc2)OC1n1cc(F)c(=O)[nH]c1=O (configuration not stated)	1.36 µM (inactive)	2.04 µM (inactive)	–	2.14 µM (inactive)	0.412 µM (active)	1.71 µM (inactive)	6.18 µM (inactive)	4.24 µM (inactive)	3.54 µM (inactive)	1.35 µM (inactive)	5.09 µM (inactive)	0.592 µM (active)	1.62 µM (inactive)	1.61 µM (inactive)	1.61 µM (inactive)	2.62 µM (inactive)	3.99 µM (inactive)	0.413 µM (active)	1.96 µM (inactive)
COc1c(-c2cccs2)oc2c(CC(=O)O)cccc2c1=O	> 100 µM (inactive)	–	> 100 µM (inactive)	> 100 µM (inactive)	–	> 100 µM (inactive)	56 µM (inactive)	–	> 100 µM (inactive)	> 100 µM (inactive)	–	0.0702 µM (active)	–	> 100 µM (inactive)	> 100 µM (inactive)	–	–	0.23 µM (active)	> 100 µM (inactive)
O=C1OS2(OCc3cccc4cccc2c34)c2ccccc21 (configuration not stated)	> 100 µM (inactive)	> 100 µM (inactive)	> 100 µM (inactive)	> 100 µM (inactive)	> 100 µM (inactive)	> 100 µM (inactive)	> 100 µM (inactive)	–	> 100 µM (inactive)	> 100 µM (inactive)	> 100 µM (inactive)	> 100 µM (inactive)	> 100 µM (inactive)	> 100 µM (inactive)	50.8 µM (inactive)	> 100 µM (inactive)	> 100 µM (inactive)	> 100 µM (inactive)	–
C/C=C1\C(=O)O[C@H]2C/C(C)=C/CC/C(C)=C/CC[C@@]3(C)O[C@@H]3C[C@@H]12	85.5 µM (inactive)	> 100 µM (inactive)	> 100 µM (inactive)	> 100 µM (inactive)	> 100 µM (inactive)	69.5 µM (inactive)	37.8 µM (inactive)	–	> 100 µM (inactive)	> 100 µM (inactive)	36.8 µM (inactive)	52 µM (inactive)	> 100 µM (inactive)	> 100 µM (inactive)	–	46.1 µM (inactive)	–	74.1 µM (inactive)	> 100 µM (inactive)
COc1cc(C(=O)O)c(-c2cc3c(cc2C=O)OCO3)c(OC)c1OC	> 10 µM (inactive)	> 10 µM (inactive)	> 10 µM (inactive)	–	> 10 µM (inactive)	> 10 µM (inactive)	> 10 µM (inactive)	> 10 µM (inactive)	> 10 µM (inactive)	> 10 µM (inactive)	> 10 µM (inactive)	> 10 µM (inactive)	> 10 µM (inactive)	> 10 µM (inactive)	> 10 µM (inactive)	–	> 10 µM (inactive)	> 10 µM (inactive)	–
C1CSC[C@H]2COC[C@@H](CSCCS1)S2	> 100 µM (inactive)	> 100 µM (inactive)	> 100 µM (inactive)	> 100 µM (inactive)	> 100 µM (inactive)	> 100 µM (inactive)	> 100 µM (inactive)	–	> 100 µM (inactive)	> 100 µM (inactive)	> 100 µM (inactive)	> 100 µM (inactive)	> 100 µM (inactive)	–	> 100 µM (inactive)	> 100 µM (inactive)	> 100 µM (inactive)	–	–
CCCCCCCCCCCCC(O)C(=O)O (configuration not stated)	> 100 µM (inactive)	> 100 µM (inactive)	> 100 µM (inactive)	> 100 µM (inactive)	> 100 µM (inactive)	> 100 µM (inactive)	–	> 100 µM (inactive)	> 100 µM (inactive)	> 100 µM (inactive)	> 100 µM (inactive)	98.6 µM (inactive)	–	> 100 µM (inactive)	> 100 µM (inactive)	> 100 µM (inactive)	> 100 µM (inactive)	> 100 µM (inactive)	–
O=c1c(C(c2ccc3ccccc3c2)c2c(O)oc3ccccc3c2=O)c(O)oc2ccccc12	16.6 µM (inactive)	17.9 µM (inactive)	39.1 µM (inactive)	28.1 µM (inactive)	18.5 µM (inactive)	24.8 µM (inactive)	–	28.6 µM (inactive)	17.9 µM (inactive)	22.6 µM (inactive)	46.3 µM (inactive)	34 µM (inactive)	28.6 µM (inactive)	38.1 µM (inactive)	17.5 µM (inactive)	27.7 µM (inactive)	26.7 µM (inactive)	32.4 µM (inactive)	46.7 µM (inactive)
C#C[C@]1(O)CC[C@H]2[C@@H]3CCC4=C/C(=N/CCOC(=O)c5cccc6c(=O)c7ccccc7[nH]c56)CC[C@@H]4[C@H]3CC[C@@]21C	16.4 µM (inactive)	40.9 µM (inactive)	20.5 µM (inactive)	> 100 µM (inactive)	64.3 µM (inactive)	32.3 µM (inactive)	–	35.2 µM (inactive)	–	28 µM (inactive)	90.2 µM (inactive)	23.1 µM (inactive)	47.6 µM (inactive)	36.8 µM (inactive)	31.4 µM (inactive)	32.7 µM (inactive)	32.7 µM (inactive)	–	5.62 µM (inactive)
CCC1(CC)CC(=NNS(=O)(=O)c2ccc(C)cc2)C1	> 100 µM (inactive)	> 100 µM (inactive)	> 100 µM (inactive)	> 100 µM (inactive)	> 100 µM (inactive)	> 100 µM (inactive)	–	> 100 µM (inactive)	> 100 µM (inactive)	> 100 µM (inactive)	> 100 µM (inactive)	> 100 µM (inactive)	> 100 µM (inactive)	> 100 µM (inactive)	> 100 µM (inactive)	> 100 µM (inactive)	> 100 µM (inactive)	–	> 100 µM (inactive)
COc1cc(S(=O)(=O)Nc2ccc(-c3csc(/N=C\c4cccc(Oc5ccccc5)c4)n3)cc2)ccc1Cl	–	96.4 µM (inactive)	16.2 µM (inactive)	26.3 µM (inactive)	9.75 µM (inactive)	32.7 µM (inactive)	21.1 µM (inactive)	60.4 µM (inactive)	–	27.9 µM (inactive)	8.85 µM (inactive)	23.2 µM (inactive)	36.1 µM (inactive)	6.44 µM (inactive)	26.1 µM (inactive)	–	41.8 µM (inactive)	21.6 µM (inactive)	20.1 µM (inactive)
O=C1CC2(CCN(Cc3ccccc3)CC2)C(=O)N1N1CCCCC1	> 100 µM (inactive)	> 100 µM (inactive)	> 100 µM (inactive)	> 100 µM (inactive)	> 100 µM (inactive)	> 100 µM (inactive)	–	> 100 µM (inactive)	–	> 100 µM (inactive)	> 100 µM (inactive)	> 100 µM (inactive)	> 100 µM (inactive)	> 100 µM (inactive)	> 100 µM (inactive)	> 100 µM (inactive)	–	> 100 µM (inactive)	> 100 µM (inactive)
